Molecular target: luciferase (Photinus pyralis, UniProt P08659)
Test: Reactivity of apyrase ATP-depleted nucleotide stocks with luciferase (background signal)
Assay type: biochemical
From the text: ARNs were investigated as a source of background signal. There are two possible sources of background resulting from ARNs: (1) residual ATP contamination from the insufficient purification, and (2) the potential for these nucleotides to be accepted as substrates by luciferase. While ATP contamination can be removed, the kinetics of a nucleotide to react with luciferase is intrinsic to the molecule and thus much more difficult to manipulate. Apyrase was used to deplete nucleotide stocks of ATP in order to compare their reactivity with luciferase. […] However, dCp4A had high levels of ATP contamination.

luciferase, sequence (P08659 whole entry): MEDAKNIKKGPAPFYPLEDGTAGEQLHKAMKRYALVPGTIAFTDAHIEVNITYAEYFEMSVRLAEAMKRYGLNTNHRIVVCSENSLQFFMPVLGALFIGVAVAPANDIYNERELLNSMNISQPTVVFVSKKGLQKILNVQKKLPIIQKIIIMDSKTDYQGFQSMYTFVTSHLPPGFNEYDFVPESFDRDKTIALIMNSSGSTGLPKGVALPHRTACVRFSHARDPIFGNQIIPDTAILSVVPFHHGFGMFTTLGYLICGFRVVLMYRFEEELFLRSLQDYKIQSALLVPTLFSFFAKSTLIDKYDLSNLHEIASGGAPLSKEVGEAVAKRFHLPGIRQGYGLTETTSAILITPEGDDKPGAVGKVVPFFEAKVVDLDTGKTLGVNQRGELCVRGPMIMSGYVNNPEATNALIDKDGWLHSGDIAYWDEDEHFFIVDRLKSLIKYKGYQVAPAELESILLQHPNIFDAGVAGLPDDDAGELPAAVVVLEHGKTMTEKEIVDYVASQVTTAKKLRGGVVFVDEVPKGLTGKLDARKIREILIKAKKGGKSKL

## Nc1ncnc2c1ncn2[C@@H]1O[C@H](COP(=O)(O)OP(=O)(O)OP(=O)(O)OP(=O)(O)OC[C@H]2O[C@@H](n3cnc4c(N)ncnc43)C[C@@H]2O)[C@@H](O)[C@H]1O [dAp4A, deoxyadenosine-5′-tetraphosphate-P4-5′-adenosine]
  activity with luciferase compared with pyrimidine counterparts (dCp4A and dTp4A): higher activity

## Nc1nc2c(ncn2[C@H]2C[C@H](O)[C@@H](COP(=O)(O)OP(=O)(O)OP(=O)(O)OP(=O)(O)OC[C@H]3O[C@@H](n4cnc5c(N)ncnc54)[C@H](O)[C@@H]3O)O2)c(=O)[nH]1 [dGp4A, deoxyguanosine-5′-tetraphosphate-P4-5′-adenosine]
  activity with luciferase compared with pyrimidine counterparts (dCp4A and dTp4A): higher activity
